Measured values published in patent US5120726A, “Rapamycin hydrazones” (American Home Products Corporation, priority 1991, dated 1992).
Like-named read-outs stand apart in the source and are kept apart here.

Key:
[1] = test system: cells from the thymus of normal BALB/c mice (lymphocyte proliferation); assay: comitogen-induced thymocyte proliferation procedure (LAF), lymphocyte proliferation; format: cell-based; conditions: for IC50: Mus musculus, Lymphocyte, read-out: LAF IC50; for LAF (ratio): ratio vs rapamycin
Description: (§1) Immunosuppressive activity was evaluated in an in vitro standard pharmacological test procedure to measure lymphocyte proliferation (LAF) and in two in vivo standard pharmacological test procedures. The first in vivo procedure was a popliteal lymph node (PLN) test procedure which measured the effect of compounds of this invention on a mixed lymphocyte reaction and the second in vivo procedure evaluated the survival time of a pinch skin graft.
Briefly, cells from the thymus of normal BALB/c mice are cultured for 72 hours with PHA and IL-1 and pulsed with tritiated thymidine during the last six hours. […] Cells are harvested and incorporated radioactivity is determined. Inhibition of lymphoproliferation is assessed as percent change in counts per minute from non-drug treated controls. The results are expressed by the following ratio, or as the percent inhibition of lymphoproliferation at 1 μM. [formula]

[2] = test system: pinch skin graft from male DBA/2 donors transplanted to male BALB/c recipients; assay: survival time of pinch skin graft; format: in vivo; conditions: intraperitoneally; mean ± S.D.
Description: as §1
The second in vivo test procedure is designed to determine the survival time of pinch skin graft from male DBA/2 donors transplanted to male BALB/c recipients. The method is adapted from Billingham R. E. and Medawar P. B., J. Exp. Biol. 28:385-402, (1951). Briefly, a pinch skin graft from the donor is grafted on the dorsum of the recipient as a homograft, and an autograft is used as control in the same region. […] Untreated recipients serve as rejection control. The graft is monitored daily and observations are recorded until the graft becomes dry and forms a blackened scab. This is considered as the rejection day. The mean graft survival time (number of days±S.D.) of the drug treatment group is compared with the control group.

[3] = test system: mixed lymphocyte reaction (popliteal lymph node); assay: popliteal lymph node (PLN) test procedure, effect on a mixed lymphocyte reaction; format: in vivo, C3H mice (BALB/c donors); conditions: ratio vs rapamycin; p.o. daily Day 0 to Day 4
Description: as §1
A mixed lymphocyte reaction (MLR) occurs when lymphoid cells from genetically distinct animals are combined in tissue culture. Each stimulates the other to undergo blast transformation which results in increased DNA synthesis that can be quantified by the incorporation of tritiated thymidine. Since stimulating a MLR is a function of disparity at Major Histocompatibility antigens, an in vivo popliteal lymph node (PLN) test procedure closely correlates to host vs. graft disease. Briefly, irradiated spleen cells from BALB/c donors are injected into the right hind foot pad of recipient C3H mice. The drug is given daily, p.o. from Day 0 to Day 4. On Day 3 and Day 4, tritiated thymidine is given i.p., b.i.d. On Day 5, the hind popliteal lymph nodes are removed and dissolved, and radioactivity counted. […] Percent suppression is calculated using the non-drug treated animals as allogenic control. […]

Candida albicans = conditions: both in vitro and in vivo; cited from earlier work
adjuvant arthritis = conditions: in vivo; cited from earlier work
[4] = test system: organ grafts in histoincompatible rodents; conditions: cited from earlier work
T-cell activation = conditions: cited from earlier work
[5] = thymocytes cultured 72 hours with PHA and IL-1, tritiated thymidine last six hours

| Structure (SMILES) | IC50 [1, 5] [nM] | LAF (ratio) [1, 5] | Skin Graft survival time (days + SD) [2] [days] | IC50 [1] [nM] | PLN (ratio) [3] | antifungal activity (Candida albicans) | effect in adjuvant arthritis model (adjuvant arthritis) | survival time of organ grafts [4] | inhibition of T-cell activation (T-cell activation) |
| --- | --- | --- | --- | --- | --- | --- | --- | --- | --- |
| CO[C@H]1C[C@@H]2CC[C@@H](C)[C@@](O)(O2)C(=O)C(=O)N2CCCC[C@H]2C(=O)O[C@H]([C@H](C)C[C@@H]2CC[C@@H](O)[C@H](OC)C2)CC(=NNC(C)=O)[C@H](C)/C=C(\C)[C@@H](O)[C@@H](OC)C(=O)[C@H](C)C[C@H](C)/C=C/C=C/C=C/1C [Example 1, Rapamycin 27-(methylcarbonyl hydrazone)] | 17.3 | 0.50 | 10.50 ± 0.6 | – | – | – | – | – | – |
| CO[C@H]1C[C@@H]2CC[C@@H](C)[C@@](O)(O2)C(=O)C(=O)N2CCCC[C@H]2C(=O)O[C@H]([C@H](C)C[C@@H]2CC[C@@H](O)[C@H](OC)C2)CC(=NNC(=O)Nc2ccccc2)[C@H](C)/C=C(\C)[C@@H](O)[C@@H](OC)C(=O)[C@H](C)C[C@H](C)/C=C/C=C/C=C/1C [Example 2, Rapamycin 27-(4-Phenylsemicarbazone)] | 19.2 | 0.45 | 7.83 ± 1.3 | – | – | – | – | – | – |
| CO[C@H]1C[C@@H]2CC[C@@H](C)[C@@](O)(O2)C(=O)C(=O)N2CCCC[C@H]2C(=O)O[C@H]([C@H](C)C[C@@H]2CC[C@@H](O)[C@H](OC)C2)CC(=O)[C@H](C)/C=C(\C)[C@@H](O)[C@@H](OC)C(=O)[C@H](C)C[C@H](C)/C=C/C=C/C=C/1C [Rapamycin] | – | – | 12.0 ± 1.7 | 8.5 to 8.8 | 1 | antifungal activity, particularly against Candida albicans, both in vitro and in vivo | effective | prolong survival time of organ grafts in histoincompatible rodents | inhibit T-cell activation |
| CO[C@H]1C[C@@H]2CC[C@@H](C)[C@@](O)(O2)C(=O)C(=O)N2CCCC[C@H]2C(=O)O[C@H]([C@H](C)C[C@@H]2CC[C@@H](O)[C@H](OC)C2)CC(=NNC(N)=O)[C@H](C)/C=C(\C)[C@@H](O)[C@@H](OC)C(=O)[C@H](C)C[C@H](C)/C=C/C=C/C=C/1C [Example 4, Rapamycin 27-semicarbazone] | 37.2 | 0.24 | – | – | 1.07 | – | – | – | – |
| CO[C@H]1C[C@@H]2CC[C@@H](C)[C@@](O)(O2)C(=O)C(=O)N2CCCC[C@H]2C(=O)O[C@H]([C@H](C)C[C@@H]2CC[C@@H](O)[C@H](OC)C2)CC(=NNc2ccccn2)[C@H](C)/C=C(\C)[C@@H](O)[C@@H](OC)C(=O)[C@H](C)C[C@H](C)/C=C/C=C/C=C/1C [Example 3, Rapamycin 27-(2-Pyridinylhydrazone)] | 15.9 | 0.55 | – | – | – | – | – | – | – |
